Data: patent US8598137B2, “Use of SAM68 for modulating signaling through the TNF receptor” (California Institute of Technology, priority 2010, dated 2013)

Experiments:
[1] = system: Wildtype and Sam68 knockout cells; details: hydrogen peroxide 100 μM, 24 hours
Source text: Cell death via the intrinsic pathway of apoptosis can be induced by genotoxic and oxidative stress (Roos and Kaina, 2006. Trends in molecular medicine 12, 440-450.) (Dumont et al., 1999. Oncogene 18, 747-757.).

[2] = system: NF-κB activation in Sam68 knockout fibroblast cells; assay: IL-1β induced NF-κB activation (IκBα degradation, p65 nuclear translocation); type: cell-based, mouse; details: 100 ng/ml IL-1 beta
Method: Wild type control and Sam68 knockout fibroblast cells were treated with TNF (Recombinant human TNFα from Peprotech), and IκBα degradation and nuclear translocation of NF-κB protein were used to monitor the activation of their NF-κB pathway (IκBα antibody was from Santa Cruz Biotechnology; assessment of NF-κB nuclear translocation, cytoplasmic and nuclear extracts were prepared as described by Schreiber et al., 1989).
The Sam68 knockout fibroblast cells were treated with IL-1β (R&D Systems), another proinflammatory cytokine. […] Thus, the NF-κB activation pathway is functional in these Sam68 knockout cells, while Sam68 activity is specifically related to TNF signaling.

Compound	death induction, cell morphology [1]	NF-κB activation (IκBα degradation and nuclear translocation of p65) [2]
OO [hydrogen peroxide]	caused death induction in both wildtype and Sam68 knockout cells	–
IL-1β: proinflammatory cytokine, recombinant human IL-1 beta (R&D Systems)	–	remained intact
